This note sets out measurements from patent US8729131B2, “Agomelatine hydrochloride hydrate and preparation thereof” (Les Laboratoires Servier, priority 2010, dated 2014).

Structures can show the parent of a compound that is named as a salt.

Type in all cases: physicochemical
Data set [1] in a line: Stability test: product placed in an incubator at 40° C. for 30 days, determined with HPLC. Conditions: 40° C. incubator. As to the method:
Chromatographic conditions: C18 column; mobile phase: 10 mmol/L phosphate buffer (adjusted to pH 7.0 with NaOH): acetonitrile=2:7 (v/v); column temperature: 40° C.; detection wavelength: 220 nm; internal standard method was used on the products of Examples 1 and 2.
Solutions of the products at 1 mg/mL were prepared with the mobile phase. 10 μL of each solution was injected into the liquid chromatograph system and chromatograms were recorded. The results of the purity are shown in Examples 1 and 2.
Some of the product of Example 1 was placed in an incubator at 40° C. for 30 days to determine its stability with HPLC.

A short description of data set [2]: Water solubility, HPLC external standard method. As for the experimental part:
Using external standard method, the product of Example 1 was tested with HPLC, compared with agomelatine crystalline form II.

A short description of data set [3]: Stability test (Chinese Pharmacopoeia): affecting factors test, open container for 10 days. As to conditions: open container 10 days; for Water: initial 6.10%; for C1: initial 11.86%; for purity: initial purity 99.72%. As for the experimental part:
(§1) The method for stability test as described in Chinese Pharmacopoeia was used in this test. • 1) Affecting factors test (in open container for 10 days): high temperature (60° C.), photostability under strong light (45001×), high humidity (92.5% RH at 25° C.) • 2) Accelerated test (in closed container for 6 months): at 40° C., humidity: 75% RH • 3) Long-term test (in closed container for 9 months): at 25° C., humidity: 60% RH

Data set [4] can be described thus: Stability test (Chinese Pharmacopoeia): accelerated test, closed container for 6 months. As to the method:
as §1

Data set [5] can be described thus: Stability test (Chinese Pharmacopoeia): long-term test, closed container for 9 months. As for the experimental part: as §1
The mark [6] stands for this setting: High humidity (92.5% RH at 25° C.).

As for `COc1ccc2cccc(CCNC(C)=O)c2c1` [AG · HCl · H2O, agomelatine hydrochloride hydrate], the “stability with HPLC” value in data set [1] (Day 0) turned out to be 99.6%; in data set [1] (Day 5), 99.5%; in data set [1] (Day 10), 99.5%; in data set [1] (Day 30), 99.5%. Further, the Agomelatine content in data set [2] (In 0.1 N HCl, hydrochloride hydrate) was found to be 0.40 mg/mL; in data set [2] (In pH 7.0 buffer, hydrochloride hydrate) it was 0.30 mg/mL; in data set [2] (In water, hydrochloride hydrate), 0.30 mg/mL. Besides, the “solubility compared with agomelatine per se (in words)” value in data set [2] (in water, in 0.1N HCl, or in pH 7.0 buffer) is on record as “better solubility”. The Water stood at 6.03% in data set [3] (setting [6]); 1.00% in data set [3] (High temperature (60° C.)); 5.95% in data set [3] (Strong light (45001×)); 6.02% in data set [4] (40° C., 75% RH, closed container 6 months, initial 6.10%); 6.00% in data set [5] (25° C., 60% RH, closed container 9 months, initial 6.10%). For the same compound, the C1 turned out to be 11.63% in data set [3] (setting [6]); 1.75% in data set [3] (High temperature (60° C.)); 11.48% in data set [3] (Strong light (45001×)); 11.65% in data set [4] (40° C., 75% RH, closed container 6 months, initial 11.86%); 11.53% in data set [5] (25° C., 60% RH, closed container 9 months, initial 11.86%). Also, the purity stood at 99.73% in data set [3] (setting [6]); 99.51% in data set [3] (High temperature (60° C.)); 99.67% in data set [3] (Strong light (45001×)); 99.64% in data set [4] (40° C., 75% RH, closed container 6 months, initial purity 99.72%); 99.74% in data set [5] (25° C., 60% RH, closed container 9 months, initial purity 99.72%). The “stability (in words)” value in data set [4] (accelerated test) and in data set [5] (long-term test) was “stable” each time.

Take `COc1ccc2cccc(CCNC(C)=O)c2c1` [AG crystalline form II, N-[2-(7-methoxy-1-naphthyl)pethyl]-acetamide, reference compound]: the Agomelatine content in data set [2] (In 0.1 N HCl) is 0.30 mg/mL; in data set [2] (In pH 7.0 buffer), 0.25 mg/mL; in data set [2] (In water), 0.26 mg/mL.
